Measured values reported in patent US9266908B2, “Inhibitors of arginase and their therapeutic applications” (MARS, INCORPORATED, priority 2011, dated 2016).

Assays:
[1] = biological target: T1, arginase II (ARG II) (Homo sapiens, UniProt P78540); test: Inhibition of arginase II, spectrophotometric urea assay at 530 nm
T1 sequence (P78540 23-354): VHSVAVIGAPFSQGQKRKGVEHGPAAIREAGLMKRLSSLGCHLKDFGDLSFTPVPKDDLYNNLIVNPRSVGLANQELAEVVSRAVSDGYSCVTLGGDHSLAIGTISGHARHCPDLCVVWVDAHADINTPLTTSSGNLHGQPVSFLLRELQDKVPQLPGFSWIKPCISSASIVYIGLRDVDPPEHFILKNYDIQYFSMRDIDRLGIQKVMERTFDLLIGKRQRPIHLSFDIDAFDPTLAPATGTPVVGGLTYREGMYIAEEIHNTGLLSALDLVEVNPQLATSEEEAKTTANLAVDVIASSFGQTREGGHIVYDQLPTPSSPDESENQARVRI
Description: (§1) Inhibition of arginase I (ARG I) and arginase II (ARG II) by the inventive compounds is followed spectrophotometrically at 530 nm. […] Solutions of arginase I and II are prepared in 100 mM sodium phosphate buffer, pH 7.4 containing 1 mg/ml of OVA to give an arginase stock solution at a final concentration of 100 ng/ml.
(§2) To each well of a 96-well microtiter plate is add 40 μl of enzyme, 10 μl of an inventive compound and 10 μl of enzyme substrate (L-arginine+ manganese sulfate). For wells that are used as positive controls, only the enzyme and its substrate are added, while wells used as negative controls contain only manganese sulfate.
(§3) After incubating the microtiter plate at 37° C. for 60 minutes, 150 μl of a urea reagent obtained by combining equal proportions (1:1) of reagents A and B is added to each well of the microtiter plate to stop the reaction. The urea reagent is made just before use by combining Reagent A (10 mM o-phthaldialdehyde, and 0.4% polyoxyethylene (23) lauryl ether (w/v) in 1.8 M sulfuric acid) with Reagent B (1.3 mM primaquine diphosphate, 0.4% polyoxyethylene (23) lauryl ether (w/v), 130 mM boric acid in 3.6 M sulfuric acid). After quenching the reaction mixture, the microtiter plate is allowed to stand for an additional 10 minutes at room temperature to allow color development. […] The normalized OD is then used to generate a dose-response curve by plotting the normalized OD values against log [concentration] and using regression analysis to compute the IC50 values.

[2] = biological target: T2, human arginase I (ARG I) (Homo sapiens, UniProt P05089); test: Inhibition of arginase I, spectrophotometric urea assay at 530 nm
T2 sequence (P05089 1-322): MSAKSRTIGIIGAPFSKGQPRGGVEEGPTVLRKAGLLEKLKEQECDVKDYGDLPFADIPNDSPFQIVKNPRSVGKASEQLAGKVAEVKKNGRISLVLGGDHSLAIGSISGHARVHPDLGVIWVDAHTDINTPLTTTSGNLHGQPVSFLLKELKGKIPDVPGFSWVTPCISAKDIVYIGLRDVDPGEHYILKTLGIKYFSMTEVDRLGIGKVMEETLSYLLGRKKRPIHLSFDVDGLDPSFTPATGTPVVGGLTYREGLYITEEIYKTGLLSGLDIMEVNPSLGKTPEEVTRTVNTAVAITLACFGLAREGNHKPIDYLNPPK
Description: as §1, §2, §3

[3] = biological target: T3, human-Arginase-1 (Homo sapiens, UniProt P05089); test: Urea production in CHOK cells stably transfected with human-Arginase-1; assay type: cell-based; conditions: IC50 class, 5 mM arginine, 24 hours, read-out: CHOK Cell
T3 construct: expressed in transfected cells; host or cells: CHOK cells
T3 sequence (P05089 1-322): T2 sequence (P05089 1-322)
Description: Table 3 also provides CHOK cell based IC50 values for illustrative arginase inhibitors. IC50 values were determined by measuring the production of urea in CHOK cells stably transfected with human-Arginase-1.
Briefly, CHOK cells were stably transfected with human-arginase-1. To determiner the IC50 values for compounds in accordance with the present invention, parental CHOK cells and arginase-1 stably transfected cells were plated in a 96 well plate. Cells were plated using 200 μl of complete growth medium and incubated overnight at 37° C.
Media from each of the wells containing cells was first removed and growth media supplemented with arginine at a concentration of 5 mM was added to each well. The test compounds were dissolved in PBS buffer to the desired concentration and added to appropriate wells. The plate was then incubated at 37° C. for 24 hours. After 24 hours the plates were spun down at 3000 RPM for 5 min and 50 μl of the media were transferred to a new plate.
An aqueous solution of o-phthaldehyde, Brij, sulfuric acid, primaquine diphosphate and boric acid was added to each well and the plate was incubated for 10-15 minutes. The urea concentration in each well was determined by measuring the optical density at 520-530 nanometers using a standard curve. The IC50 values were calculated by measuring urea production at various concentrations of the inventive arginase inhibitors after subtracting the value related to the concentration of urea in control wells.

IC50 [1]	IC50 [2]	IC50 [3]	SMILES
0.1 to 25 nM	26 to 100 nM	26000 to 100000 nM	NC(CCCCB(O)O)(C(=O)O)[C@H]1C[C@@H](NC2CCC(c3ccccc3)CC2)C1 (mixture of isomers) [Example 47, (S)-2-amino-6-borono-2-((1s,3R)-3-(4-phenylcyclohexylamino)cyclobutyl)hexanoic acid]
0.1 to 25 nM	26 to 100 nM	26000 to 100000 nM	NC(CCCCB(O)O)(C(=O)O)[C@H]1C[C@@H](NCc2cccc(-c3ccccc3)c2F)C1 (mixture of isomers) [Example 48, (S)-2-amino-6-borono-2-((1s,3R)-3-((2-fluorobiphenyl-3-yl)methylamino)cyclobutyl)hexanoic acid]
26 to 100 nM	0.1 to 25 nM	1000 to 25000 nM	NC(CCCCB(O)O)(C(=O)O)[C@H]1C[C@@H](NCc2ccc(-c3ccc(Cl)cc3)c(F)c2F)C1 (mixture of isomers) [Example 50, (S)-2-amino-6-borono-2-((1s,3R)-3-((4′-chloro-2,3-difluorobiphenyl-4-yl)methylamino)cyclobutyl)hexanoic acid]
0.1 to 25 nM	26 to 100 nM	26000 to 100000 nM	NC(CCCCB(O)O)(C(=O)O)[C@H]1C[C@@H](NCc2ccc(-c3ccc(Cl)cc3)c(F)c2)C1 (mixture of isomers) [Example 51, (S)-2-amino-6-borono-2-((1s,3R)-3-((4′-chloro-2-fluorobiphenyl-4-yl)methylamino)cyclobutyl)hexanoic acid]
0.1 to 25 nM	0.1 to 25 nM	1000 to 25000 nM	Cc1ccc(F)c(-c2ccc(CN[C@H]3C[C@@H](C(N)(CCCCB(O)O)C(=O)O)C3)cc2F)c1 (mixture of isomers) [Example 52, (S)-2-amino-6-borono-2-((1s,3R)-3-((2,2′-difluoro-5′-methylbiphenyl-4-yl)methylamino)cyclobutyl)hexanoic acid]
26 to 100 nM	0.1 to 25 nM	26000 to 100000 nM	NC(CCCCB(O)O)(C(=O)O)[C@H]1C[C@@H](NCc2ccc(-c3ccc(F)cc3)c(F)c2)C1 (mixture of isomers) [Example 53, (S)-2-amino-6-borono-2-((1s,3R)-3-((2,4′-difluorobiphenyl-4-yl)methylamino)cyclobutyl)hexanoic acid]
26 to 100 nM	26 to 100 nM	26000 to 100000 nM	NC(CCCCB(O)O)(C(=O)O)[C@H]1C[C@@H](NCc2ccc(-c3ccccc3F)c(F)c2)C1 (mixture of isomers) [Example 54, (S)-2-amino-6-borono-2-((1s,3R)-3-((2,2′-difluorobiphenyl-4-yl)methylamino)cyclobutyl)hexanoic acid]
26 to 100 nM	26 to 100 nM	26000 to 100000 nM	NC(CCCCB(O)O)(C(=O)O)[C@H]1C[C@@H](NCc2ccc(-c3ccc(F)cc3F)c(F)c2)C1 (mixture of isomers) [Example 55, (S)-2-amino-6-borono-2-((1s,3R)-3-((2,2′,4′-trifluorobiphenyl-4-yl)methylamino)cyclobutyl)hexanoic acid]
26 to 100 nM	26 to 100 nM	26000 to 100000 nM	NC(CCCCB(O)O)(C(=O)O)[C@H]1C[C@@H](NCc2ccc(Cc3ccccc3)cc2)C1 (mixture of isomers) [Example 57, (S)-2-amino-2-((1s,3R)-3-(4-benzylbenzylamino)cyclobutyl)-6-boronohexanoic acid]
26 to 100 nM	26 to 100 nM	1000 to 25000 nM	NC(CCCCB(O)O)(C(=O)O)[C@H]1C[C@@H](NCc2c(F)cc(-c3ccc(Cl)cc3)cc2F)C1 (mixture of isomers) [Example 58, (S)-2-amino-6-borono-2-((1s,3R)-3-((4′-chloro-3,5-difluorobiphenyl-4-yl)methylamino)cyclobutyl)hexanoic acid]
26 to 100 nM	0.1 to 25 nM	26000 to 100000 nM	NC(CCCCB(O)O)(C(=O)O)[C@H]1C[C@@H](NCC2CCN(c3ccc(C(F)(F)F)cc3)CC2)C1 (mixture of isomers) [Example 60, (S)-2-amino-6-borono-2-((1s,3R)-3-((1-(4-(trifluoromethyl)phenyl)piperidin-4-yl)methylamino)cyclobutyl)hexanoic acid]
26 to 100 nM	26 to 100 nM	26000 to 100000 nM	NC(CCCCB(O)O)(C(=O)O)[C@H]1CC[C@H](NCc2ccc(-c3ccccc3)cc2)C1 (stereo in doubt) [Example 43]
26 to 100 nM	0.1 to 25 nM	1000 to 25000 nM	NC(CCCCB(O)O)(C(=O)O)[C@H]1C[C@@H](NC2Cc3ccccc3C2)C1 (stereo partly drawn) [Example 5, (S)-2-amino-6-borono-2-((1s,3R)-3-(2,3-dihydro-1H-inden-2-ylamino)cyclobutyl)hexanoic acid]
26 to 100 nM	26 to 100 nM	26000 to 100000 nM	CC(C)(C)c1ccc(CN[C@H]2C[C@@H](C(N)(CCCCB(O)O)C(=O)O)C2)cc1 (stereo partly drawn) [Example 6, (S)-2-amino-6-borono-2-((1s,3R)-3-(4-tert-butylbenzylamino)cyclobutyl)hexanoic acid]
0.1 to 25 nM	0.1 to 25 nM	1000 to 25000 nM	NC(CCCCB(O)O)(C(=O)O)[C@H]1C[C@@H](NCc2cccc(-c3ccc(C(F)(F)F)cc3)c2)C1 (stereo partly drawn) [Example 8, (S)-2-amino-6-borono-2-((1s,3R)-3-((4′-(trifluoromethyl)biphenyl-3-yl)methylamino)cyclobutyl)hexanoic acid]
0.1 to 25 nM	0.1 to 25 nM	26000 to 100000 nM	NC(CCCCB(O)O)(C(=O)O)[C@H]1C[C@@H](NCc2cccc(-c3ccc(Cl)cc3)c2)C1 (stereo partly drawn) [Example 9, (S)-2-amino-6-borono-2-((1s,3R)-3-((4′-chlorobiphenyl-3-yl)methylamino)cyclobutyl)hexanoic acid]
0.1 to 25 nM	0.1 to 25 nM	1000 to 25000 nM	NC(CCCCB(O)O)(C(=O)O)[C@H]1C[C@@H](NCc2ccc(F)c3ccccc23)C1 (stereo partly drawn) [Example 10, (S)-2-amino-6-borono-2-((1s,3R)-3-((4-fluoronaphthalen-1-yl)methylamino)cyclobutyl)hexanoic acid]
26 to 100 nM	0.1 to 25 nM	1000 to 25000 nM	NC(CCCCB(O)O)(C(=O)O)[C@H]1C[C@@H](NCc2cccc3c(F)cccc23)C1 (stereo partly drawn) [Example 11, (S)-2-amino-6-borono-2-((1s,3R)-3-((5-fluoronaphthalen-1-yl)methylamino)cyclobutyl)hexanoic acid]
0.1 to 25 nM	26 to 100 nM	26000 to 100000 nM	NC(CCCCB(O)O)(C(=O)O)[C@H]1C[C@@H](NCc2c3ccccc3cc3ccccc23)C1 (stereo partly drawn) [Example 12, (S)-2-amino-2-((1s,3R)-3-(anthracen-9-ylmethylamino)cyclobutyl)-6-boronohexanoic acid]
26 to 100 nM	26 to 100 nM	26000 to 100000 nM	NC(CCCCB(O)O)(C(=O)O)[C@H]1C[C@@H](NCc2ccccc2N2CCOCC2)C1 (stereo partly drawn) [Example 13, (S)-2-amino-6-borono-2-((1s,3R)-3-(2-morpholinobenzylamino)cyclobutyl)hexanoic acid]
26 to 100 nM	26 to 100 nM	1000 to 25000 nM	NC(CCCCB(O)O)(C(=O)O)[C@H]1C[C@@H](NCc2ccc3c(c2)CCO3)C1 (stereo partly drawn) [Example 15, (S)-2-amino-6-borono-2-((1s,3R)-3-((2,3-dihydrobenzofuran-5-yl)methylamino)cyclobutyl)hexanoic acid]
0.1 to 25 nM	0.1 to 25 nM	1000 to 25000 nM	NC(CCCCB(O)O)(C(=O)O)[C@H]1C[C@@H](NCc2ccc(-c3ccc(Cl)c(Cl)c3)cc2)C1 (stereo partly drawn) [Example 16, (S)-2-amino-6-borono-2-((1s,3R)-3-((3′,4′-dichlorobiphenyl-4-yl)methylamino)cyclobutyl)hexanoic acid]
